Where “and” joins values, the source holds several entries; their conditions need not be identical. Identical values can stand only once.
Tests used:
Format in all cases: cell-based
[1] = target: Sodium-dependent dopamine transporter (Homo sapiens) (UniProt Q01959); test: Inhibition of radioligand [125I]RTI-55 binding to human Dopamine transporter in clonal cells
[2] = target: Sodium-dependent dopamine transporter (Homo sapiens) (UniProt Q01959); test: Inhibition of [3H]dopamine uptake in HEK293 cells expressing recombinant Dopamine transporter
[3] = target: Sodium-dependent serotonin transporter (Homo sapiens) (UniProt P31645); test: Inhibition of [125I]RTI-55 binding to human SERT in clonal cells
Sequence of Sodium-dependent serotonin transporter (Homo sapiens) (P31645 whole entry, looked up): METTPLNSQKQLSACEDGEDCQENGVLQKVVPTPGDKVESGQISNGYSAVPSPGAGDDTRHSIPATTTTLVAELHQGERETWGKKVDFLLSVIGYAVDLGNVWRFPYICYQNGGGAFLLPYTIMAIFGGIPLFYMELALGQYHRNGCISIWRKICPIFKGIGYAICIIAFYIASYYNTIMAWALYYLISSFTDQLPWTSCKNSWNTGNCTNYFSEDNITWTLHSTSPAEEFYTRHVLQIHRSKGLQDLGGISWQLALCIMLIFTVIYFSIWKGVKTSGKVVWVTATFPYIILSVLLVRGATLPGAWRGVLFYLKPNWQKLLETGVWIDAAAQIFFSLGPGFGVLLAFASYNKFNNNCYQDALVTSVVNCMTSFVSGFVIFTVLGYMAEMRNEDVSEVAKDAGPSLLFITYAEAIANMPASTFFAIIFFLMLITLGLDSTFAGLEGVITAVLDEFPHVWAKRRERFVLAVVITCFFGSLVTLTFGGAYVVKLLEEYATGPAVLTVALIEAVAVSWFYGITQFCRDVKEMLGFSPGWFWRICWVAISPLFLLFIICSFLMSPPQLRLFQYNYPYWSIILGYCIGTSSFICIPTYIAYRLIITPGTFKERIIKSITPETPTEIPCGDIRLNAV

Sequence of Sodium-dependent dopamine transporter (Homo sapiens) (Q01959 whole entry): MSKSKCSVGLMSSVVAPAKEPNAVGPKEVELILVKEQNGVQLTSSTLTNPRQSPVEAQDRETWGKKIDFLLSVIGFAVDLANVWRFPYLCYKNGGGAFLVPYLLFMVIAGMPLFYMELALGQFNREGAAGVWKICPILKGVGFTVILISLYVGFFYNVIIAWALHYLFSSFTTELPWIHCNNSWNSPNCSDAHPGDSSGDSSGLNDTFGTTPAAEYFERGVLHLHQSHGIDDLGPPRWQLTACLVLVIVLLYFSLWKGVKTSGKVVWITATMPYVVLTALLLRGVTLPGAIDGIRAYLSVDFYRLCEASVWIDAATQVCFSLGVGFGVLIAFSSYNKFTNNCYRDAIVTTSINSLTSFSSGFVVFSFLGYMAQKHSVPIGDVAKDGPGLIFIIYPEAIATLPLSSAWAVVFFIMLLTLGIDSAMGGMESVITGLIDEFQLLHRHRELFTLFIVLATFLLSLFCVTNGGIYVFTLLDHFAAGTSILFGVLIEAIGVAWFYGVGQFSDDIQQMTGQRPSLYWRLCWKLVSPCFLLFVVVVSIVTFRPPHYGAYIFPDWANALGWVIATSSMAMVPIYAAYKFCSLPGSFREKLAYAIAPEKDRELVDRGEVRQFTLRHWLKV

SMILES	pKD [1]	Log 1/C [2]	pKD [3]
Clc1ccc(C(OCCN2CCN(C/C=C/c3ccccc3)CC2)c2ccc(Cl)cc2)cc1	7.42	6.62	6.48
CN(CCc1ccccc1)CCN1CCN(CCCc2ccccc2)CC1	6.26	6.85	5.58
O=C(/C=C/c1ccc(Cl)cc1)N1CCN(CCOC(c2ccc(F)cc2)c2ccc(F)cc2)CC1	6.37	5.44	7.14
Fc1ccc(CN(CCCN2CCN(CCCc3ccccc3)CC2)c2ccccn2)cc1	7.95	6.91	6.55
O=C(/C=C/c1ccccc1Cl)N1CCN(CCOC(c2ccc(F)cc2)c2ccc(F)cc2)CC1	6.14	5.24	6.77
Fc1ccc(CCCN2CCN(CCOC(c3ccc(F)cc3)c3ccc(F)cc3)CC2)cc1	8.25	6.42	6.44
COc1ccc(/C=C/C(=O)N2CCN(CCOC(c3ccc(F)cc3)c3ccc(F)cc3)CC2)cc1	6.31	5.87	6.85
Fc1ccc(C(OCCN2CCN(C/C=C/c3ccc(Cl)cc3)CC2)c2ccc(F)cc2)cc1	7.65	6.66	6.09
O=C(/C=C/c1c(Cl)cccc1Cl)N1CCN(CCOC(c2ccc(F)cc2)c2ccc(F)cc2)CC1	5.82	–	6.68
Cc1ccc(C(OCCN2CCN(C/C=C/c3ccccc3)CC2)c2ccccc2)cc1 (stereo not drawn)	6.95	6.78	5.95
COc1ccc(CN(CCN2CCN(CCCc3ccccc3)CC2)c2ccccn2)cc1	6.66	6.57	6.79
Fc1ccc(C(OCCN2CCN(C/C=C/c3ccccc3)CC2)c2ccc(Cl)cc2Cl)cc1 (stereo not drawn)	7.18	5.86	6.28
COc1ccc(OC)c(/C=C/C(=O)N2CCN(CCOC(c3ccc(F)cc3)c3ccc(F)cc3)CC2)c1	6.25	–	6.69
O=C(CN1CCN(CCCc2ccccc2)CC1)N(Cc1ccccc1)c1ccccc1	5.97	6.28	5.54
Fc1ccc(CCCN2CCN(CCOC(c3ccccc3)c3ccc(F)cc3)CC2)cc1 (stereo not drawn)	7.51	7.49	6.33
Fc1ccc(/C=C/CN2CCN(CCOC(c3ccccc3)c3ccccc3)CC2)cc1	7.8	7.26	5.88
COc1ccc(/C=C/CN2CCN(CCOC(c3ccc(F)cc3)c3ccc(F)cc3)CC2)cc1	7.19	6.47	6.43
c1ccc(CCCN2CCN(CCN(Cc3ccccc3)c3ccccn3)CC2)cc1	7.04	6.91	6.28
Cc1ccc(/C=C/C(=O)N2CCN(CCOC(c3ccc(F)cc3)c3ccc(F)cc3)CC2)cc1	6.1	5.21	6.71
COc1ccc(CN(CCCN2CCN(CCCc3ccccc3)CC2)c2ccccn2)cc1	7.8	7.08	7.23
Cc1ccc(/C=C/CN2CCN(CCOC(c3ccc(F)cc3)c3ccc(F)cc3)CC2)cc1	7.32	6.43	6.18
Fc1ccc(CN(CCN2CCN(CCCc3ccccc3)CC2)c2ccc(F)cc2)cc1	7.28	–	6.57
C(=C\c1ccccc1)/CN1CCN(CCN(Cc2ccccc2)c2ccccn2)CC1	6	6.1	6.17
Fc1ccc(C(OCCN2CCN(C/C=C/Cc3ccccc3)CC2)c2ccc(F)cc2)cc1	8.29	6.86	7.14
c1ccc(CCCN2CCN(CCCCN(Cc3ccccc3)c3ccccc3)CC2)cc1	7.86	5.76	6.88
Fc1ccc(C(OCCN2CCN(C/C=C/c3ccccc3)CC2)c2ccc(Cl)cc2)cc1 (stereo not drawn)	8.41	6.7	6.72
Fc1ccc(C(OCCN2CCN(Cc3ccccc3)CC2)c2ccc(F)cc2)cc1	7.01	6.12	6.74

SMILES	pKD [1]	Log 1/C [2]	pKD [3]
Fc1ccc(C(OCCN2CCN(C/C=C/c3ccccc3)CC2)c2ccccc2)cc1 (stereo not drawn)	7.48	7.1	6.67
Brc1ccc(CN(CCN2CCN(CCCc3ccccc3)CC2)c2ccc(Br)cc2)cc1	6.01	–	5.79
c1ccc(CCCN2CCN(CCN(Cc3ccccc3)c3ccccc3)CC2)cc1	6.66	5.96	5.92
Fc1ccc(C(OCCN2CCN(C/C=C/c3ccccc3)CC2)c2ccc(F)cc2)cc1 (stereo in doubt; 26)	6.39	6.97	6.02
c1ccc(CCCN2CCN(CCCN(Cc3ccccc3)c3ccccc3)CC2)cc1	–	6.07 and 5.83	–
Fc1ccc(C(OCCN2CCN(CCCc3ccc(Cl)cc3)CC2)c2ccc(F)cc2)cc1	8.09	7.3	6.81
Fc1ccc(C(OCCN2CCN(CCCc3ccccc3)CC2)c2ccccc2)cc1 (stereo not drawn)	7.69	7.8	6.21
COc1cccc(C(OCCN2CCN(C/C=C/c3ccccc3)CC2)c2cccc(Br)c2)c1 (stereo not drawn)	6.88	6.05	6.13
Fc1ccc(C(OCCN2CCN(C/C=C/c3ccccc3)CC2)c2ccc(F)cc2)cc1 (stereo in doubt; 15)	8.11	7.08	6.44
Fc1ccc(/C=C/CN2CCN(CCOC(c3ccc(F)cc3)c3ccc(F)cc3)CC2)cc1	8.41	6.96	6.64
COc1ccc(OC)c(/C=C/CN2CCN(CCOC(c3ccc(F)cc3)c3ccc(F)cc3)CC2)c1	8.42	6.43	6.74
Fc1ccc(C(OCCN2CCN(C/C=C/c3ccccc3)CC2)c2ccc(F)cc2)cc1 (stereo in doubt; 24)	7.76	8.38	7.79
Cc1ccc(CN(CCN2CCN(CCCc3ccccc3)CC2)c2ccccc2)cc1	6.37	5.49	6.09
O=C(CCCN1CCN(CCCc2ccccc2)CC1)N(Cc1ccccc1)c1ccccn1	6.25	6.61	5.88
C(=C\c1ccccc1)/CN1CCN(CCN(Cc2ccccc2)c2ccccc2)CC1	6.35	6.74	6.22
Fc1ccc(CCCN2CCN(CCOC(c3ccccc3)c3ccccc3)CC2)cc1	7.4	6.41	5.74
O=C(CCCCN1CCN(CCCc2ccccc2)CC1)N(Cc1ccccc1)c1ccccc1	7.24	6.92	6.69
COc1ccc(CN(CCN2CCN(C/C=C/c3ccccc3)CC2)c2ccccn2)cc1	5.66	–	6.64
COc1ccc(N(CCN2CCN(C/C=C/c3ccccc3)CC2)Cc2ccccc2)cc1	–	–	6.55
c1ccc(CCCN2CCN(CCCCCN(Cc3ccccc3)c3ccccc3)CC2)cc1	7.5	5.83	6.63
COc1ccc(C(OCCN2CCN(C/C=C/c3ccccc3)CC2)c2ccccc2)cc1 (stereo not drawn)	–	–	6.16
Fc1ccc(/C=C/CN2CCN(CCOC(c3ccccc3)c3ccc(F)cc3)CC2)cc1 (stereo not drawn)	7.64	7.22	6.7
Fc1ccc(CN(CCN2CCN(CCCc3ccccc3)CC2)c2ccccn2)cc1	7.19	6.24	6.64
COc1ccc(N(CCN2CCN(CCCc3ccccc3)CC2)Cc2ccccc2)cc1	6.04	6.67	6.59
Fc1ccc(CN(CCCN2CCN(CCCc3ccccc3)CC2)c2ccc(F)cc2)cc1	7.86	6.82	6.48
O=C(CCCN1CCN(CCCc2ccccc2)CC1)N(Cc1ccccc1)c1ccccc1	7.56	7.12	6.28
